According to patent US10556907B2 (AbbVie Inc., priority 2015, dated 2020):
pEC50: −log10 of the molar value. Where a name gives a salt, the structure may show the parent alone.

Assays:
Test in all cases: Method 1: intracellular Ca2+ release (FLIPR, Calcium 5) in recombinant CHO-K1 cells
Type in all cases: cell-based
human S1PR1 receptor = molecular target: T1, human S1PR1 receptor (Homo sapiens, UniProt P21453); details: (1): determined with method 1; read-out: S1P1 EC50
T1 construct: host or cells: CHO-K1
T1 sequence (P21453 whole entry): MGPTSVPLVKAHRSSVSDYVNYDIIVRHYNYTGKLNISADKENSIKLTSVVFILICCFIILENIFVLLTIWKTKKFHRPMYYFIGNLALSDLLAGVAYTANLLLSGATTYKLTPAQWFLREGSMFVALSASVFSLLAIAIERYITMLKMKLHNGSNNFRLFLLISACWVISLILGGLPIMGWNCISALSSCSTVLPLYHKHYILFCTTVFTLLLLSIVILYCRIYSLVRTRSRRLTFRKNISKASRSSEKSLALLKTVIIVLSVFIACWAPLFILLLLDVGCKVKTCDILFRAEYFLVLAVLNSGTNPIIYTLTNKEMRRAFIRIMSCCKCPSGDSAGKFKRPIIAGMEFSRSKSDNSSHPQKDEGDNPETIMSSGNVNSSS
Summary of the method: (§1)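 Read-out: FLIPR Tetra fluorescence of Calcium 5-loaded CHO-K1 cells (receptor + aequorin + Gq/i5) after agonist addition at RT. Values are EC50s from nonlinear fits normalized to the phospho-fingolimod reference curve. Buffer HBSS with Ca2+/Mg2+, Hepes, probenecid, 0.1% BSA, pH 7.4.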

human S1PR5 receptor = molecular target: T2, human S1PR5 receptor (Homo sapiens, UniProt Q9H228); details: agonist potency, determined with method 1 (symbols A-D); read-out: S1P5 EC50 range
T2 construct: host or cells: CHO-K1
T2 sequence (Q9H228 whole entry): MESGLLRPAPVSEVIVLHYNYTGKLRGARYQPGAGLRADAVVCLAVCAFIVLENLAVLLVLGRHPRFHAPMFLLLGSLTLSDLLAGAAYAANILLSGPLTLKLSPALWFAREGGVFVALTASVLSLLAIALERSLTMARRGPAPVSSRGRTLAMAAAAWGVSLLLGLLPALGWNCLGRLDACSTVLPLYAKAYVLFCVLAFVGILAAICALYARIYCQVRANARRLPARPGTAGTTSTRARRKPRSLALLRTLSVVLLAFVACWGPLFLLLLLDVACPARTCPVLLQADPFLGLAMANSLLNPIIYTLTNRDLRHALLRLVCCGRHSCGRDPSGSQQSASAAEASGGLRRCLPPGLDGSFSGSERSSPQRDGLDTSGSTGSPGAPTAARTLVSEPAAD
Summary of the method: as §1

human S1PR4 receptor = molecular target: T3, human S1PR4 receptor (Homo sapiens, UniProt O95977); details: (1): determined with method 1; read-out: S1P4 EC50
T3 construct: host or cells: CHO-K1
T3 sequence (O95977 1-384): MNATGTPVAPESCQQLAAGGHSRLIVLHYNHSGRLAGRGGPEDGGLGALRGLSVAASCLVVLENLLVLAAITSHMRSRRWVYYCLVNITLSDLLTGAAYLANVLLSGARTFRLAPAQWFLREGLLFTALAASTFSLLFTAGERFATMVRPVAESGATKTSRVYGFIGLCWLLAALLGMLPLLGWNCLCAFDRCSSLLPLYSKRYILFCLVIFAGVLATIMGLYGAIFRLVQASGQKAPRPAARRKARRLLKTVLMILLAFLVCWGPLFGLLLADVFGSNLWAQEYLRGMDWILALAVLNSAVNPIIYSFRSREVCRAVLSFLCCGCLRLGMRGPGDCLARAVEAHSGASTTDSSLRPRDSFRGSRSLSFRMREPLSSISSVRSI
Summary of the method: as §1

For `Cc1cc(-c2ncc3c(n2)CCN(CC(C)CC(=O)O)C3)ccc1OCc1ccc(C(C)C)cc1` (stereo not drawn) [Compound 310, 4-[2-[4-[(4-isopropylphenyl)methoxy]-3-methyl-phenyl]-7,8-dihydro-5H-pyrido[4,3-d]pyrimidin-6-yl]-3-methyl-butanoic acid 2,2,2-trifluoroacetic acid salt], the pEC50 (human S1PR1 receptor) was < 6.00, the pEC50 (human S1PR5 receptor) was 6.00 to 7.00 and the pEC50 (human S1PR4 receptor) was < 6.00.

With `O=C(O)C1CCC(N2CCc3nc(-c4ccc(OCc5ccc(Cl)cc5)cc4)ncc3C2)C1` (stereo not drawn) [Compound 295, 3-(2-(4-((4-chlorobenzyl)oxy)phenyl)-7,8-dihydropyrido[4,3-d]pyrimidin-6(5H)-yl)cyclopentanecarboxylic acid] the pEC50 (human S1PR1 receptor) was < 6.00, the pEC50 (human S1PR5 receptor) was 6.00 to 7.00 and the pEC50 (human S1PR4 receptor) was < 6.00.

With `C[C@H](CCO)CN1CCc2nc(-c3ccc(OCc4ccc(Cl)cc4)cc3)ncc2C1` [Compound 315, (R)-4-(2-(4-((4-chlorobenzyl)oxy)phenyl)-7,8-dihydropyrido[4,3-d]pyrimidin-6(5H)-yl)-3-methylbutan-1-ol] the pEC50 (human S1PR1 receptor) was < 6.00, the pEC50 (human S1PR5 receptor) was 6.00 to 7.00 and the pEC50 (human S1PR4 receptor) was < 6.00.

With `CC(C(=O)O)N1CCc2nc(-c3ccc(OCc4ccccc4)cc3)ncc2C1` (stereo not drawn) [Compound 322, 2-(2-(4-(benzyloxy)phenyl)-7,8-dihydropyrido[4,3-d]pyrimidin-6(5H)-yl)propanoic acid] the pEC50 (human S1PR1 receptor) was < 6.00, the pEC50 (human S1PR5 receptor) was 5.00 to 6.00 and the pEC50 (human S1PR4 receptor) was < 6.00.

For `Cc1ccc(COc2ccc(-c3ncc4c(n3)CCN(CC(C)CC(=O)O)C4)c(F)c2)c(C)c1` (stereo not drawn) [Compound 304, 4-[2-[4-[(2,4-dimethylphenyl)methoxy]-2-fluoro-phenyl]-7,8-dihydro-5H-pyrido[4,3-d]pyrimidin-6-yl]-3-methyl-butanoic acid 2,2,2-trifluoroacetic acid salt], the pEC50 (human S1PR1 receptor) was < 6.00, the pEC50 (human S1PR5 receptor) was 6.00 to 7.00 and the pEC50 (human S1PR4 receptor) was < 6.00.

`Cc1cccc(COc2ccc(-c3ncc4c(n3)CCN(CC(C)CC(=O)O)C4)cc2C)c1` (stereo not drawn) [Compound 320, 3-methyl-4-[2-[3-methyl-4-(m-tolylmethoxy)phenyl]-7,8-dihydro-5H-pyrido[4,3-d]pyrimidin-6-yl]butanoic acid 2,2,2-trifluoroacetic acid salt] was tested, and the pEC50 (human S1PR1 receptor) was < 6.00, the pEC50 (human S1PR5 receptor) was 5.00 to 6.00 and the pEC50 (human S1PR4 receptor) was < 6.00.

`Cc1cccc(C)c1COc1ccc(-c2ncc3c(n2)CCN(CC(C)CC(=O)O)C3)c(F)c1` (stereo not drawn) [Compound 276, 4-[2-[4-[(2,6-dimethylphenyl)methoxy]-2-fluoro-phenyl]-7,8-dihydro-5H-pyrido[4,3-d]pyrimidin-6-yl]-3-methyl-butanoic acid 2,2,2-trifluoroacetic acid salt] was tested, and the pEC50 (human S1PR1 receptor) was < 6.00, the pEC50 (human S1PR5 receptor) was 7.00 to 8.00 and the pEC50 (human S1PR4 receptor) was < 6.00.

In the case of `CC(C(=O)O)N1CCc2nc(-c3ccc(OCc4cccc(Cl)c4)cc3)ncc2C1` (stereo not drawn) [Compound 317, 2-(2-(4-((3-chlorobenzyl)oxy)phenyl)-7,8-dihydropyrido[4,3-d]pyrimidin-6(5H)-yl)propanoic acid], the pEC50 (human S1PR1 receptor) was < 6.00, the pEC50 (human S1PR5 receptor) was 6.00 to 7.00 and the pEC50 (human S1PR4 receptor) was < 6.00.

`Cc1cc(-c2ncc3c(n2)CCN(CC(C)CC(=O)O)C3)ccc1OCc1ccccc1Cl` (stereo not drawn) [Compound 262, 4-(2-(4-((2-chlorobenzyl)oxy)-3-methylphenyl)-7,8-dihydropyrido[4,3-d]pyrimidin-6(5H)-yl)-3-methylbutanoic acid] was tested, and the pEC50 (human S1PR1 receptor) was < 6.00, the pEC50 (human S1PR5 receptor) was 7.00 to 8.00 and the pEC50 (human S1PR4 receptor) was < 6.00.

In the case of `Cc1cc(-c2ncc3c(n2)CCN(CC(C)CC(=O)O)C3)ccc1OCc1cccc(F)c1F` (stereo not drawn) [Compound 256, 4-(2-(4-((2,3-difluorobenzyl)oxy)-3-methylphenyl)-7,8-dihydropyrido[4,3-d]pyrimidin-6(5H)-yl)-3-methylbutanoic acid], the pEC50 (human S1PR1 receptor) was < 6.00, the pEC50 (human S1PR5 receptor) was > 8.00 and the pEC50 (human S1PR4 receptor) was < 6.00.

In the case of `O=C(O)CN1CCc2nc(-c3ccc(OCc4ccccc4)cc3)ncc2C1` [Compound 25, 2-(2-(4-(benzyloxy)phenyl)-7,8-dihydropyrido[4,3-d]pyrimidin-6(5H)-yl)acetic acid], the pEC50 (human S1PR1 receptor) was < 6.00, the pEC50 (human S1PR5 receptor) was 6.00 to 7.00 and the pEC50 (human S1PR4 receptor) was < 6.00.

For `O=C(O)C1CC(N2CCc3nc(-c4ccc(OCc5ccc(Cl)cc5)cc4)ncc3C2)C1` (stereo not drawn) [Compound 287, 3-(2-(4-((4-chlorobenzyl)oxy)phenyl)-7,8-dihydropyrido[4,3-d]pyrimidin-6(5H)-yl)cyclobutanecarboxylic acid], the pEC50 (human S1PR1 receptor) was < 6.00, the pEC50 (human S1PR5 receptor) was 6.00 to 7.00 and the pEC50 (human S1PR4 receptor) was < 6.00.

With `Cc1ccc(COc2ccc(-c3ncc4c(n3)CCN(CC(C)CC(=O)O)C4)cc2C)c(C)c1` (stereo not drawn) [Compound 305, 4-[2-[4-[(2,4-dimethylphenyl)methoxy]-3-methyl-phenyl]-7,8-dihydro-5H-pyrido[4,3-d]pyrimidin-6-yl]-3-methyl-butanoic acid 2,2,2-trifluoroacetic acid salt] the pEC50 (human S1PR1 receptor) was < 6.00, the pEC50 (human S1PR5 receptor) was 6.00 to 7.00 and the pEC50 (human S1PR4 receptor) was < 6.00.

In the case of `O=C(O)C1CCC(N2CCc3nc(-c4ccc(OCc5cccc(Cl)c5)cc4)ncc3C2)C1` (stereo not drawn) [Compound 288, 3-(2-(4-((3-chlorobenzyl)oxy)phenyl)-7,8-dihydropyrido[4,3-d]pyrimidin-6(5H)-yl)cyclopentanecarboxylic acid hydrochloride], the pEC50 (human S1PR1 receptor) was < 6.00, the pEC50 (human S1PR5 receptor) was 6.00 to 7.00 and the pEC50 (human S1PR4 receptor) was < 6.00.

For `Cc1cc(-c2ncc3c(n2)CCN(C[C@@H](C)CC(=O)O)C3)ccc1OCc1ccc(Cl)cc1` [Compound 270, (S)-4-(2-(4-((4-chlorobenzyl)oxy)-3-methylphenyl)-7,8-dihydropyrido[4,3-d]pyrimidin-6(5H)-yl)-3-methylbutanoic acid], the pEC50 (human S1PR1 receptor) was < 6.00, the pEC50 (human S1PR5 receptor) was 7.00 to 8.00 and the pEC50 (human S1PR4 receptor) was < 6.00.

`CC(C)(CC(=O)O)CN1CCc2nc(-c3ccc(OCc4cccc(Cl)c4)cc3)cnc2C1` [Compound 211, 4-(2-(4-((3-chlorobenzyl)oxy)phenyl)-7,8-dihydropyrido[3,4-b]pyrazin-6(5H)-yl)-3,3-dimethylbutanoic acid] was tested, and the pEC50 (human S1PR1 receptor) was < 6.00, the pEC50 (human S1PR5 receptor) was 5.00 to 6.00 and the pEC50 (human S1PR4 receptor) was < 6.00.

`CCc1cccc(Cl)c1COc1nc2c(cc1F)CN(C1CC(C(=O)O)C1)CC2` (stereo not drawn) [Compound 183, 3-(2-((2-chloro-6-ethylbenzyl)oxy)-3-fluoro-7,8-dihydro-1,6-naphthyridin-6(5H)-yl)cyclobutanecarboxylic acid] was tested, and the pEC50 (human S1PR1 receptor) was < 6.00, the pEC50 (human S1PR5 receptor) was 6.00 to 7.00 and the pEC50 (human S1PR4 receptor) was < 6.00.

For `CC(C)(CC(=O)O)CN1CCc2nc(-c3ccc(OCc4ccc(Cl)c(Cl)c4)cc3)ncc2C1` [Compound 217, 4-(2-(4-((3,4-dichlorobenzyl)oxy)phenyl)-7,8-dihydropyrido[4,3-d]pyrimidin-6(5H)-yl)-3,3-dimethylbutanoic acid], the pEC50 (human S1PR1 receptor) was < 6.00, the pEC50 (human S1PR5 receptor) was 6.00 to 7.00 and the pEC50 (human S1PR4 receptor) was < 6.00.

`CCc1ccccc1COc1ccc(-c2ncc3c(n2)CCN(CC(C)CC(=O)O)C3)c(F)c1` (stereo not drawn) [Compound 296, 4-[2-[4-[(2-ethylphenyl)methoxy]-2-fluoro-phenyl]-7,8-dihydro-5H-pyrido[4,3-d]pyrimidin-6-yl]-3-methyl-butanoic acid 2,2,2-trifluoroacetic acid salt] was tested, and the pEC50 (human S1PR1 receptor) was < 6.00, the pEC50 (human S1PR5 receptor) was 6.00 to 7.00 and the pEC50 (human S1PR4 receptor) was < 6.00.

With `O=C(O)CN1CCc2nc(-c3ccc(OCc4cc(F)cc(F)c4)cc3)ncc2C1` [Compound 31, 2-(2-(4-((3,5-difluorobenzyl)oxy)phenyl)-7,8-dihydropyrido[4,3-d]pyrimidin-6(5H)-yl)acetic acid] the pEC50 (human S1PR1 receptor) was < 6.00, the pEC50 (human S1PR5 receptor) was 6.00 to 7.00 and the pEC50 (human S1PR4 receptor) was < 6.00.

For `Cc1cc(C)cc(COc2ccc(-c3ncc4c(n3)CCN(CC(C)CC(=O)O)C4)c(F)c2)c1` (stereo not drawn) [Compound 313, 4-[2-[4-[(3,5-dimethylphenyl)methoxy]-2-fluoro-phenyl]-7,8-dihydro-5H-pyrido[4,3-d]pyrimidin-6-yl]-3-methyl-butanoic acid 2,2,2-trifluoroacetic acid salt], the pEC50 (human S1PR1 receptor) was < 6.00, the pEC50 (human S1PR5 receptor) was 6.00 to 7.00 and the pEC50 (human S1PR4 receptor) was < 6.00.

In the case of `Cc1ccc(C(F)(F)F)cc1COc1ccc(-c2ncc3c(n2)CCN(CC(C)CC(=O)O)C3)cc1C` (stereo not drawn) [Compound 314, 3-methyl-4-[2-[3-methyl-4-[[2-methyl-5-(trifluoromethyl)phenyl]methoxy]phenyl]-7,8-dihydro-5H-pyrido[4,3-d]pyrimidin-6-yl]butanoic acid 2,2,2-trifluoroacetic acid salt], the pEC50 (human S1PR1 receptor) was < 6.00, the pEC50 (human S1PR5 receptor) was 6.00 to 7.00 and the pEC50 (human S1PR4 receptor) was < 6.00.

In the case of `Cc1cc(-c2ncc3c(n2)CCN(CC(C)CC(=O)O)C3)ccc1OCc1c(C)cccc1C` (stereo not drawn) [Compound 274, 4-[2-[4-[(2,6-dimethylphenyl)methoxy]-3-methyl-phenyl]-7,8-dihydro-5H-pyrido[4,3-d]pyrimidin-6-yl]-3-methyl-butanoic acid 2,2,2-trifluoroacetic acid salt], the pEC50 (human S1PR1 receptor) was < 6.00, the pEC50 (human S1PR5 receptor) was 7.00 to 8.00 and the pEC50 (human S1PR4 receptor) was < 6.00.

For `Cc1ccc(COc2ccc(-c3ncc4c(n3)CCN(CC(C)CC(=O)O)C4)cc2C)cc1` (stereo not drawn) [Compound 301, 3-methyl-4-[2-[3-methyl-4-(p-tolylmethoxy)phenyl]-7,8-dihydro-5H-pyrido[4,3-d]pyrimidin-6-yl]butanoic acid 2,2,2-trifluoroacetic acid salt], the pEC50 (human S1PR1 receptor) was < 6.00, the pEC50 (human S1PR5 receptor) was 6.00 to 7.00 and the pEC50 (human S1PR4 receptor) was < 6.00.
